Data set [1] has as its system phospho-ERK in HCT-116 cells. The data set is described as follows: HCT-116 cell pERK assay (AlphaScreen SureFire). The class given is cell-based. As to conditions: Homo sapiens, B-Raf wild type, K-Ras mutation, 4 hours, range over the listed examples, read-out: phospho-ERK signal IC50. As to the method: Examples of Formula I are tested against HCT-116 cells harboring wild type B-Raf and K-Ras mutation. The phospho-ERK activities are evaluated as described below.
HCT-116 cells (catalog #CCL-247) are obtained from the American Type Culture Collection (ATCC, Manassas, Va.). Briefly, cells are grown in McCoy's 5A supplemented with 10% characterized fetal bovine serum (Invitrogen, Carlsbad, Calif.), and 1% Penicillin/Streptomycin/L-Glutamine at 37 degrees Celsius, 5% CO2, and 95% humidity. Cells are allowed to expand until reaching 75-90% confluency at which point they are subcultured or harvested for assay use. HCT-116 cells suspended in complete media are added to 384-well tissue culture treated plates (3×10^5 cells/mL; 7,500 cells per well). The cells are incubated overnight at 37 degrees Celsius, 5% CO2, and 95% humidity. Next, test compound or DMSO diluted in complete media is added to the wells (0.25% final DMSO concentration). The plates are then incubated for 4 hours at 37 degrees Celsius, 5% CO2, and 95% humidity. Following compound incubation, the cells are lysed at 4° C. for 20 minutes with shaking. Cell lysates are centrifuged and the supernatant is transferred to a new plate. An aliquot of each lysate is transferred to a white 384-well assay plate. Using the AlphaScreen SureFire pERK kit (Perkin-Elmer, Waltham, Mass.), an acceptor bead mixture is added to each well and incubated for 2 h at room temperature in the dark. A donor bead mixture is then added to each well and incubated for 2 h at room temperature in the dark. Plates are read using a Synergy2 plate reader (Biotek, Winooski, Vt.) in Plate Mode with Timing Control. Read: (F)1: excitation: 680/30 nm, emission: Plug. 2: Excitation: Plug, emission: 570/100 nm. Top mirror 635 nm. Data is analyzed using Prism software (Graphpad, San Diego, Calif.) to calculate IC50 values and Excel software (Microsoft, Redmond, Wash.) to calculate stimulation compared to control.
In general terms: In Alpha technology, singlet oxygen from a donor bead excites a nearby acceptor bead.

The subject of data set [2] is A375 V600E xenograft tumor. Description: A375 rat xenograft efficacy model. Type of data set: in vivo, rats. As to conditions: orally twice a day at 10 and 20 mg/kg for 21 days. As for the experimental part: To further evaluate in vivo activity of compounds of Formula I, A375 V600E (ATCC) and HCT-116 K—Ras mutant B-Raf wild type (ATCC) xenograft tumor models are used. Briefly, 10×10^6 cells (A375) or 5×10^6 cells (HCT-116) in a 1:1 medium and matrigel mix (0.2 mL total volume) are implanted by subcutaneous injection in the hind leg of nude female rats (NIH model No. NIHRNU-M from Taconic). A total of 8 rats in each group are used for the efficacy study, and a total of 3-4 rats in each group are used for a pharmacodynamic study. Treatment is initiated with oral administration (gavage) of test compound or vehicle (20% Captisol®, 25 mM phosphate, pH 2.0) in 0.6 mL volume when tumor size reaches approximately 500 mg. Test compound is orally dosed twice a day for 21 days. Tumor growth and body weight are monitored over time to evaluate activity and signs of toxicity. Bidimensional measurements of tumors are performed twice a week and tumor volumes are calculated based on mid-axis length and mid-axis width. Tumor volume data are transformed to a log scale to equalize variance across time and treatment groups. The log volume data are analyzed with a two-way repeated measures analysis of variance by time and treatment using the MIXED® procedures in SAS® software (version 8.2). The correlation model for the repeated measures is spatial power. […]

Molecules are shown by their SMILES.

As to `CNc1ncc2cc(-c3cc(NC(=O)NCCC4(C)CC4)c(F)cc3C)c(C)nc2n1` [Example 24, 1-(2-Fluoro-4-methyl-5-(7-methyl-2-(methylamino)pyrido[2,3-d]pyrimidin-6-yl)phenyl)-3-(2-(1-methylcyclopropyl)ethyl)urea], the concentration for half-maximal inhibition (IC50) in data set [1] lay within 0.002 to 0.472 µM. Further, the tumor growth entry in data set [2] (both dosing groups) is “tumor growth inhibition and tumor growth regression”. In addition, the animal body weight entry in data set [2] (either group) was “no animal body weight loss”.
`CNc1ncc2cc(-c3cc(NC(=O)NCCC(C)(C)C)c(F)cc3C)cnc2n1` [Example 35, 1-(3,3-Dimethylbutyl)-3-[2-fluoro-4-methyl-5-(2-methylaminopyrido[2,3-d]pyrimidin-6-yl)phenyl]urea]: the half-inhibitory concentration (IC50) in data set [1] was 0.002 to 0.472 µM.
As to `Cc1cc(F)c(NC(=O)NCCC(C)(C)F)cc1-c1cc2cnc(NC3COC3)nc2nc1C` [Example 25, 1-(3-Fluoro-3-methylbutyl)-3-(2-fluoro-4-methyl-5-(7-methyl-2-(oxetan-3-ylamino)pyrido[2,3-d]pyrimidin-6-yl)phenyl)urea], the half-maximal inhibitory concentration (IC50) in data set [1] is 0.002 to 0.472 µM.

Broadly, the IC50 is the concentration at which inhibition is half-maximal.

(Values after patent US9334267B2, “RAF inhibitor compounds” (Deciphera Pharmaceuticals, LLC, priority 2012, dated 2016).)
